Measurements taken from patent publication US10105303B2, “Oral care composition comprising zinc amino acid halides” (Colgate-Palmolive Company, priority 2012, dated 2018).
Values joined by “and” are separate entries in the source; they are usually repeats but may differ in a detail not shown here. Identical values can stand only once.

Legend:
[1] = Deposition/occlusion assay on dentine slices, confocal imaging; set-up: species or system human; conditions: for Thickness of surface deposits: 16-fold dilution
Description: The deposition/occlusion assay is conducted using human dentine slices and the neat solution of Example 5. The dentine slices were prepared by cutting human tooth into thin dentine sections of about 800 microns in thickness, choosing a test side, sanding said test side using a sandpaper of about 600 grit, polishing said test side using a Buehler polishing cloth and 5 micron Buehler aluminum oxide, acid-etching said dentine section in 1% (by weight) citric acid solution for about 20 seconds, sonicating said dentine section for 10 minutes, and storing said dentine section in phosphate buffered saline (PBS, pH 7.4).
For treatment, the neat solution is diluted 16-fold with water, yielding a treatment solution with initial zinc concentration of about 0.149% by weight. The dentine section is immersed in the treatment solution for 1 hour at 37° C. The treated dentine section is then removed from the treatment solution, and rinsed 4 times, each time with 1 mL of PBS. The dentine section is then dried using a paper-based tissue and examined under confocal microscope in both XYZ and XYZ modes. Subsequent treatments are conducted in the same manner.
Dentine sections, as prepared in Example 6, are repeatedly treated with ZLC dilutions with initial zinc concentration of 0.0747% by weight. […] The dentine section is examined under the confocal microscope after each treatment.

[2] = Dilution experiment of ZLC neat solution: visible flocculation/precipitation and pH; type: physicochemical; conditions: for final pH value: diluted sample
Description: Various dilutions of ZLC are prepared to evaluate its efficiency in producing visible precipitates and/or flocculation, which can be delivered in situ onto an oral surface or into a dental opening, such as open tubules.
A neat solution of ZLC is prepared by 1), reacting 0.5 mole of ZnO powder with 1 mole of lysine HCl in 1 liter of water at room temperature for about 2 hours, and 2) collecting the supernatant through centrifugation followed by filtration using a 0.45 micron membrane. The neat solution has a zinc concentration of 2.39% by weight, and a pH of about 7.03.
Dilution experiment is conducted by mixing the neat solution with deionized water. The neat solution is diluted by 2×, 4×, 6×, 7×, 8×, 10×, 12×, 16×, 20×, 24×, 28×, and 32×, corresponding to initial zinc concentrations of 1.20%, 0.598%, 0.398%, 0.341%, 0.299%, 0.239%, 0.199%, 0.149%, 0.120%, 0.0996%, 0.0854%, 0.0747%, by weight, respectively. The diluted samples are kept at 37° C., and the rates at which flocculation/precipitation occurred are monitored.
pH values of final diluted samples are suitable for oral care applications. […] These pH values were well within the range of 5.5 to 10, which defines the suitable range for oral care formulations.

final pH value ([2]; initial zinc concentration 0.0747%): 7.99
final pH value ([2]; initial zinc concentration 0.0854%): 8.13
final pH value ([2]; initial zinc concentration 0.0996%): 8.11
final pH value ([2]; initial zinc concentration 0.120%): 7.97
final pH value ([2]; initial zinc concentration 0.149%): 7.99
final pH value ([2]; initial zinc concentration 0.199 wt %): 6.80
final pH value ([2]; initial zinc concentration 0.239%): 6.70
pH of the neat solution ([2]; neat solution, zinc concentration 2.39% by weight): about 7.03
Initial zinc concentration of the additional sample with flocculation ([2]; two hours after mixing, 37° C.): 0.299%
Initial zinc concentrations of dilutions with visible flocculation ([2]; within 30 minutes from mixing with water, 37° C.): 0.149% and 0.199%
Substance: [Zn(C6H14N2O2)2Cl]^+Cl^− [ZLC]
Deposition and occlusion on dentine surface ([1]; after 4 consecutive treatments, 0.0747% zinc, 10 minutes each at 37° C.): significant surface deposition
Deposition and occlusion on dentine surface ([1]; after 12 consecutive treatments, 0.0747% zinc, 10 minutes each at 37° C.): complete surface coverage
Thickness of surface deposits ([1]; after second treatment, 1 hour at 37° C.): ≥ 10 microns
Thickness of surface deposits ([1]; after third treatment, 1 hour at 37° C.): ≥ 25 microns
Deposition and occlusion on dentine surface ([1]; first treatment, 16-fold dilution (about 0.149% zinc), 1 hour at 37° C.): noticeable deposition
Visible precipitation during treatment ([1]; initial zinc concentration 0.0747%, 10 minutes at 37° C.): no precipitation is observed by naked eyes
Deposition and occlusion on dentine surface ([1]; second treatment, 16-fold dilution (about 0.149% zinc), 1 hour at 37° C.): complete surface coverage, including blocking of substantially all tubule openings
Deposition and occlusion on dentine surface ([1]; third treatment, 16-fold dilution (about 0.149% zinc), 1 hour at 37° C.): complete surface coverage and complete blocking of tubule openings
Samples with flocculation and/or precipitation ([2]; after a total of 19 hours, 37° C.): all samples except the one with initial zinc concentration of 1.20%
